Tests used:
Assay type in all cases: cell-based, Escherichia coli
[1] = system: EKO-35 araC::emrAB; experiment: MIC susceptibility profiling, efflux platform; conditions: for Fold change of MICs: EKO-35 araC::emrAB compared to EKO-35
Procedure, shortened: (§1)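 MHB II broth microdilution; inoculum from 18 h LB culture, PBS-adjusted to OD600 ~1.0, then 1/2000 dilution. Compounds 2-fold titrated, duplicates, DMSO solvent control. 18 h, 37 °C, 900 rpm; background-corrected OD600 end point.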

[2] = system: EKO-35 araC::mexCD (MexCD from P. aeruginosa); experiment: MIC susceptibility profiling, efflux platform; conditions: for Fold change of MICs: EKO-35 araC::mexCD compared to EKO-35; for MIC: read-out: Minimum Inhibitory Concentration, EKO-35 araC::mexCD
Procedure, shortened: as §1

[3] = system: EKO-35 araC::mdtBC; experiment: MIC susceptibility profiling, efflux platform; conditions: for Fold change of MICs: EKO-35 araC::mdtBC compared to EKO-35
Procedure, shortened: as §1

[4] = system: EKO-35 araC::emrKY; experiment: MIC susceptibility profiling, efflux platform; conditions: for Fold change of MICs: EKO-35 araC::emrKY compared to EKO-35
Procedure, shortened: as §1

[5] = system: EKO-35 araC::acrD; experiment: MIC susceptibility profiling, efflux platform; conditions: for Fold change of MICs: EKO-35 araC::acrD compared to EKO-35
Procedure, shortened: as §1

[6] = system: EKO-35 araC::acrBD408A; experiment: MIC susceptibility profiling, efflux platform; conditions: for Fold change of MICs: EKO-35 araC::acrBD408A compared to EKO-35; for MIC: Escherichia coli, read-out: Minimum Inhibitory Concentration, EKO-35 araC::acrBD408A
Procedure, shortened: as §1

[7] = system: EKO-35 araC::acrEF; experiment: MIC susceptibility profiling, efflux platform; conditions: for Fold change of MICs: EKO-35 araC::acrEF compared to EKO-35; for MIC: Escherichia coli, read-out: Minimum Inhibitory Concentration, EKO-35 araC::acrEF
Procedure, shortened: as §1

[8] = system: EKO-35 araC::macAB; experiment: MIC susceptibility profiling, efflux platform; conditions: for Fold change of MICs: EKO-35 araC::macAB compared to EKO-35
Procedure, shortened: as §1

[9] = system: EKO-35 araC::acrD Pore; experiment: MIC susceptibility profiling, porinated efflux platform; conditions: for Fold changes of MICs: EKO-35 araC::acrD Pore compared to EKO-35-Pore
Procedure, shortened: (§2)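 Strains carry the fhuA ΔC/Δ4L pore integrated between glmS and pstS under a constitutive promoter, with pore activity checked by vancomycin susceptibility. Overnight LB cultures were adjusted in PBS pH 7.4 to OD600 ~1.0 and diluted 1/2000 into MHB II. 2-fold compound titrations were read by OD600 after 18 h at 37 °C.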

[10] = system: EKO-35 araC::emrKY Pore; experiment: as above; conditions: for Fold changes of MICs: EKO-35 araC::emrKY Pore compared to EKO-35-Pore
Procedure, shortened: as §2

[11] = system: EKO-35 araC::mdtBC Pore; experiment: as above; conditions: for Fold changes of MICs: EKO-35 araC::mdtBC Pore compared to EKO-35-Pore
Procedure, shortened: as §2

[12] = system: EKO-35 araC::acrBD408A Pore; experiment: as above; conditions: for Fold changes of MICs: EKO-35 araC::acrBD408A Pore compared to EKO-35-Pore
Procedure, shortened: as §2

[13] = system: EKO-35 araC::emrAB Pore; experiment: as above; conditions: for Fold changes of MICs: EKO-35 araC::emrAB Pore compared to EKO-35-Pore
Procedure, shortened: as §2

[14] = system: EKO-35 araC::acrB Pore; experiment: as above; conditions: for Fold changes of MICs: EKO-35 araC::acr-B Pore compared to EKO-35-Pore; for MIC: Escherichia coli, read-out: Minimum inhibitory concentration, EKO-35 araC::acrB Pore
Procedure, shortened: as §2

[15] = system: EKO-35 araC::mdtEF Pore; experiment: as above; conditions: for Fold changes of MICs: EKO-35 araC::mdtEF Pore compared to EKO-35-Pore
Procedure, shortened: as §2

[16] = system: EKO-35 araC::acrEF Pore; experiment: as above; conditions: for Fold changes of MICs: EKO-35 araC::acrEF Pore compared to EKO-35-Pore
Procedure, shortened: as §2

[17] = system: EKO-35 araC::mexCD Pore; experiment: as above; conditions: for Fold changes of MICs: EKO-35 araC::mexCD Pore compared to EKO-35-Pore
Procedure, shortened: as §2

[18] = system: EKO-35 araC::macAB Pore; experiment: as above; conditions: for Fold changes of MICs: EKO-35 araC::macAB Pore compared to EKO-35-Pore
Procedure, shortened: as §2

[19] = Table 13B, non-porinated, technical duplicate
[20] = Table 13A, non-porinated, technical duplicate
[21] = Table 14A, porinated, technical duplicate

Structure (SMILES) | Fold change of MICs [1] [fold] | Fold change of MICs [2] [fold] | MIC [2, 19] [µg/mL] | Fold change of MICs [3] [fold] | Fold change of MICs [4] [fold] | Fold change of MICs [5] [fold] | Fold change of MICs [6] [fold] | MIC [6, 19] [µg/mL] | Fold change of MICs [7] [fold] | Fold change of MICs [8] [fold] | Fold changes of MICs [9] [fold] | Fold changes of MICs [10] [fold] | Fold changes of MICs [11] [fold] | Fold changes of MICs [12] [fold] | Fold changes of MICs [13] [fold] | Fold changes of MICs [14] [fold] | Fold changes of MICs [15] [fold] | Fold changes of MICs [16] [fold] | Fold changes of MICs [17] [fold] | Fold changes of MICs [18] [fold] | further results
[H]/N=C(\N/C(=N/[H])NCCCCCCNC(=N)NC(=N)Nc1ccc(Cl)cc1)Nc1ccc(Cl)cc1 [Chlorhexidine] | 1 | 1 | 0.391 | 1 | 1 | 1 | 1 | 0.391 | 1 | 1 | 1 | 1 | 1 | 1 | 1 | 1 | 1 | 1 | 1 | 1 | MIC ([1]; Escherichia coli, Table 13B, non-porinated, technical duplicate, read-out: Minimum Inhibitory Concentration, EKO-35 araC::emrAB): 0.391 µg/mL; MIC ([3]; Escherichia coli, Table 13B, non-porinated, technical duplicate, read-out: Minimum Inhibitory Concentration, EKO-35 araC::mdtBC): 0.391 µg/mL; MIC ([4]; Escherichia coli, Table 13B, non-porinated, technical duplicate, read-out: Minimum Inhibitory Concentration, EKO-35 araC::emrKY): 0.391 µg/mL; MIC ([5]; Escherichia coli, Table 13A, non-porinated, technical duplicate, read-out: Minimum Inhibitory Concentration, EKO-35 araC::acrD): 0.391 µg/mL; MIC [7, 20]: 0.391 µg/mL; MIC ([8]; Escherichia coli, Table 13B, non-porinated, technical duplicate, read-out: Minimum Inhibitory Concentration, EKO-35 araC::macAB): 0.391 µg/mL; MIC ([9]; Escherichia coli, Table 14A, porinated, technical duplicate, read-out: Minimum inhibitory concentration, EKO-35 araC::acrD Pore): 0.391 µg/mL; MIC ([10]; Escherichia coli, EKO-35 araC::emrKY Pore, technical duplicate, read-out: Minimum inhibitory concentration): 0.391 µg/mL; MIC ([11]; Escherichia coli, EKO-35 araC::mdtBC Pore, technical duplicate, read-out: Minimum inhibitory concentration): 0.391 µg/mL; MIC ([12]; Escherichia coli, EKO-35 araC::acrBD408A Pore, technical duplicate, read-out: Minimum inhibitory concentration): 0.391 µg/mL; MIC ([13]; Escherichia coli, EKO-35 araC::emrAB Pore, technical duplicate, read-out: Minimum inhibitory concentration): 0.391 µg/mL; MIC [14, 21]: 0.391 µg/mL; MIC ([15]; Escherichia coli, Table 14A, porinated, technical duplicate, read-out: Minimum inhibitory concentration, EKO-35 araC::mdtEF Pore): 0.391 µg/mL; MIC ([16]; Escherichia coli, Table 14A, porinated, technical duplicate, read-out: Minimum inhibitory concentration, EKO-35 araC::acrEF Pore): 0.391 µg/mL; MIC ([17]; Escherichia coli, EKO-35 araC::mexCD Pore, technical duplicate, read-out: Minimum inhibitory concentration): 0.391 µg/mL; MIC ([18]; Escherichia coli, EKO-35 araC::macAB Pore, technical duplicate, read-out: Minimum inhibitory concentration): 0.391 µg/mL
O=C(Nc1ccccc1)Nc1ccc(Br)c(C(F)(F)F)c1 [compound 6] | 1 | 1 |  | 1 | 1 | 1 | 1 |  | 1 | 1 | 1 | 1 | 1 | 1 | 1 | 1 | 1 | 1 | 1 | 1 | Minimum Inhibitory Concentration, EKO-35 araC::emrAB [1, 19]: 320 µg/mL; Minimum Inhibitory Concentration, EKO-35 araC::mexCD [2, 19]: 320 µg/mL; Minimum Inhibitory Concentration, EKO-35 araC::mdtBC [3, 19]: 320 µg/mL; Minimum Inhibitory Concentration, EKO-35 araC::emrKY [4, 19]: 320 µg/mL; Minimum Inhibitory Concentration, EKO-35 araC::acrD [5, 20]: 320 µg/mL; Minimum Inhibitory Concentration, EKO-35 araC::acrBD408A [6, 19]: 320 µg/mL; Minimum Inhibitory Concentration, EKO-35 araC::acrEF [7, 20]: 320 µg/mL; Minimum Inhibitory Concentration, EKO-35 araC::macAB [8, 19]: 320 µg/mL; Minimum inhibitory concentration, EKO-35 araC::acrD Pore [9, 21]: 320 µg/mL; Minimum inhibitory concentration ([10]; EKO-35 araC::emrKY Pore, technical duplicate): 320 µg/mL; Minimum inhibitory concentration ([11]; EKO-35 araC::mdtBC Pore, technical duplicate): 320 µg/mL; Minimum inhibitory concentration ([12]; EKO-35 araC::acrBD408A Pore, technical duplicate): 320 µg/mL; Minimum inhibitory concentration ([13]; EKO-35 araC::emrAB Pore, technical duplicate): 320 µg/mL; Minimum inhibitory concentration, EKO-35 araC::acrB Pore [14, 21]: 320 µg/mL; Minimum inhibitory concentration, EKO-35 araC::mdtEF Pore [15, 21]: 320 µg/mL; Minimum inhibitory concentration, EKO-35 araC::acrEF Pore [16, 21]: 320 µg/mL; Minimum inhibitory concentration ([17]; EKO-35 araC::mexCD Pore, technical duplicate): 320 µg/mL; Minimum inhibitory concentration ([18]; EKO-35 araC::macAB Pore, technical duplicate): 320 µg/mL
COc1cc(Cc2cnc(N)nc2N)cc(OC)c1OC [trimethoprim] | 1 | 2 | 0.391 | 1 | 1 | 2 | 0 | 0.098 | 4 | 1 | 1 | 2 | 1 | 1 | 2 | 4 | 2 | 1 | 1 | 1 | MIC [7, 20]: 0.781 µg/mL; MIC [14, 21]: 0.781 µg/mL; efflux pump-mediated resistance vs EKO-35-Pore ([16]; AcrEF with the pore): impacted the ability of AcrEF to confer resistance
